Measured values taken from ChEMBL document CHEMBL3046774, “Synthesis and insect antifeedant activity of precocene derivatives with lactone moiety” (2005).
The source made the active and inactive calls. No cut-off for these calls is given here.

The compounds below were run on Sitophilus granarius (assay: Antifeeding activity against Sitophilus granarius (granary weevil) adults in compound treated wheat wafer disk assessed as relative coefficient of deterrence by feeding deterrent activity test).
Assay type: functional
COc1cc2c(cc1OC)[C@@H]1OC(=O)C[C@]1(I)C(C)(C)O2 (racemic) showed an FDI of 89.5. COc1ccc2c(c1)OC(C)(C)[C@@]1(I)CC(=O)O[C@@H]21 (racemic) showed an FDI of 93.4. COc1cc2c(cc1OC)OC(C)(C)C=C2 [PROCOCENE II] showed an FDI of 94.2. For COc1ccc2c(c1)OC(C)(C)C=C2 [PROCOCENE I], the FDI was 83.8.

What follows are compounds tested on Trogoderma granarium (assay: Antifeeding activity against Trogoderma granarium (khapra beetle) larvaes in compound treated wheat wafer disk assessed as total coefficient of deterrence by feeding deterrent activity test).
Assay type: functional
COc1cc2c(cc1OC)[C@@H]1OC(=O)C[C@]1(I)C(C)(C)O2 (racemic) showed an FDI of 120.1. COc1ccc2c(c1)OC(C)(C)[C@@]1(I)CC(=O)O[C@@H]21 (racemic) showed an FDI of 111.4. For COc1cc2c(cc1OC)OC(C)(C)C=C2 [PROCOCENE II], the FDI was 198.6. With COc1ccc2c(c1)OC(C)(C)C=C2 [PROCOCENE I] the FDI was 80.1.

The compounds below were run on Leptinotarsa decemlineata (assay: Antifeeding activity against Leptinotarsa decemlineata larvaes in compound treated wheat wafer disk assessed as relative coefficient of deterrence by feeding deterrent activity test).
Assay type: functional
COc1cc2c(cc1OC)[C@@H]1OC(=O)C[C@]1(I)C(C)(C)O2 (racemic) was tested, and the FDI was 90.6. Work on COc1ccc2c(c1)OC(C)(C)[C@@]1(I)CC(=O)O[C@@H]21 (racemic) yielded an FDI of 95.8. COc1cc2c(cc1OC)OC(C)(C)C=C2 [PROCOCENE II] was tested, and the FDI was 91.2. COc1ccc2c(c1)OC(C)(C)C=C2 [PROCOCENE I] was tested, and the FDI was 86.8.

These compounds were tested on Trogoderma granarium (assay: Antifeeding activity against Trogoderma granarium (khapra beetle) larvaes in compound treated wheat wafer disk assessed as relative coefficient of deterrence by feeding deterrent activity test).
Assay type: functional
COc1cc2c(cc1OC)[C@@H]1OC(=O)C[C@]1(I)C(C)(C)O2 (racemic) gave an FDI of 80.5. With COc1ccc2c(c1)OC(C)(C)[C@@]1(I)CC(=O)O[C@@H]21 (racemic) the FDI was 79.8. COc1cc2c(cc1OC)OC(C)(C)C=C2 [PROCOCENE II] showed an FDI of 100. Compound COc1ccc2c(c1)OC(C)(C)C=C2 [PROCOCENE I] has an FDI of 38.3.

These compounds were tested on Trogoderma granarium (assay: Antifeeding activity against Trogoderma granarium (khapra beetle ) larvaes in compound treated wheat wafer disk assessed as absolute coefficient of deterrence by feeding deterrent activity test).
Assay type: functional
Compound COc1cc2c(cc1OC)[C@@H]1OC(=O)C[C@]1(I)C(C)(C)O2 (racemic) has an FDI of 39.6. Work on COc1ccc2c(c1)OC(C)(C)[C@@]1(I)CC(=O)O[C@@H]21 (racemic) yielded an FDI of 31.6. In the case of COc1cc2c(cc1OC)OC(C)(C)C=C2 [PROCOCENE II], the FDI is reported as 98.6. In the case of COc1ccc2c(c1)OC(C)(C)C=C2 [PROCOCENE I], the FDI is reported as 41.8.

The compounds below were run on Tribolium confusum (assay: Antifeeding activity against Tribolium confusum (confused flour beetle) larvaes in compound treated wheat wafer disk assessed as relative coefficient of deterrence by feeding deterrent activity test).
Assay type: functional
Work on COc1cc2c(cc1OC)[C@@H]1OC(=O)C[C@]1(I)C(C)(C)O2 (racemic) yielded an FDI of 93.6. Compound COc1ccc2c(c1)OC(C)(C)[C@@]1(I)CC(=O)O[C@@H]21 (racemic) has an FDI of 77.5. COc1cc2c(cc1OC)OC(C)(C)C=C2 [PROCOCENE II] gave an FDI of 97.1. Work on COc1ccc2c(c1)OC(C)(C)C=C2 [PROCOCENE I] yielded an FDI of 64.1.

The compounds below were run on Sitophilus granarius (assay: Antifeeding activity against Sitophilus granarius (granary weevil) adults in compound treated wheat wafer disk assessed as total coefficient of deterrence by feeding deterrent activity test).
Assay type: functional
In the case of COc1cc2c(cc1OC)[C@@H]1OC(=O)C[C@]1(I)C(C)(C)O2 (racemic), the FDI is reported as 93.4. COc1ccc2c(c1)OC(C)(C)[C@@]1(I)CC(=O)O[C@@H]21 (racemic) showed an FDI of 114.5. COc1cc2c(cc1OC)OC(C)(C)C=C2 [PROCOCENE II] gave an FDI of 194.2. In the case of COc1ccc2c(c1)OC(C)(C)C=C2 [PROCOCENE I], the FDI is reported as 139.

The compounds below were run on Tribolium confusum (assay: Antifeeding activity against Tribolium confusum (confused flour beetle) larvaes in compound treated wheat wafer disk assessed as absolute coefficient of deterrence by feeding deterrent activity test).
Assay type: functional
COc1cc2c(cc1OC)[C@@H]1OC(=O)C[C@]1(I)C(C)(C)O2 (racemic) gave an FDI of 54.2. With COc1ccc2c(c1)OC(C)(C)[C@@]1(I)CC(=O)O[C@@H]21 (racemic) the FDI was 16.7. Compound COc1cc2c(cc1OC)OC(C)(C)C=C2 [PROCOCENE II] has an FDI of 68.6. COc1ccc2c(c1)OC(C)(C)C=C2 [PROCOCENE I] showed an FDI of 55.1.

Each compound was assayed on Leptinotarsa decemlineata (assay: Antifeeding activity against Leptinotarsa decemlineata larvaes in compound treated wheat wafer disk assessed as total coefficient of deterrence by feeding deterrent activity test).
Assay type: functional
With COc1cc2c(cc1OC)[C@@H]1OC(=O)C[C@]1(I)C(C)(C)O2 (racemic) the FDI was 132. Compound COc1ccc2c(c1)OC(C)(C)[C@@]1(I)CC(=O)O[C@@H]21 (racemic) has an FDI of 134.1. In the case of COc1cc2c(cc1OC)OC(C)(C)C=C2 [PROCOCENE II], the FDI is reported as 124.1. For COc1ccc2c(c1)OC(C)(C)C=C2 [PROCOCENE I], the FDI was 164.6.

What follows are compounds tested on Tribolium confusum (assay: Antifeeding activity against Tribolium confusum (confused flour beetle) adults in compound treated wheat wafer disk assessed as relative coefficient of deterrence by feeding deterrent activity test).
Assay type: functional
COc1cc2c(cc1OC)[C@@H]1OC(=O)C[C@]1(I)C(C)(C)O2 (racemic) was tested, and the FDI was 89.5. With COc1ccc2c(c1)OC(C)(C)[C@@]1(I)CC(=O)O[C@@H]21 (racemic) the FDI was 93.4. With COc1cc2c(cc1OC)OC(C)(C)C=C2 [PROCOCENE II] the FDI was 94.2. Compound COc1ccc2c(c1)OC(C)(C)C=C2 [PROCOCENE I] has an FDI of 83.8.

These compounds were tested on Leptinotarsa decemlineata (assay: Antifeeding activity against Leptinotarsa decemlineata larvaes in compound treated wheat wafer disk assessed as absolute coefficient of deterrence by feeding deterrent activity test).
Assay type: functional
With COc1cc2c(cc1OC)[C@@H]1OC(=O)C[C@]1(I)C(C)(C)O2 (racemic) the FDI was 41.4. COc1ccc2c(c1)OC(C)(C)[C@@]1(I)CC(=O)O[C@@H]21 (racemic) gave an FDI of 38.3. Compound COc1cc2c(cc1OC)OC(C)(C)C=C2 [PROCOCENE II] has an FDI of 32.9. COc1ccc2c(c1)OC(C)(C)C=C2 [PROCOCENE I] gave an FDI of 77.8.

The compounds below were run on Tribolium confusum (assay: Antifeeding activity against Tribolium confusum (confused flour beetle) adults in compound treated wheat wafer disk assessed as total coefficient of deterrence by feeding deterrent activity test).
Assay type: functional
For COc1cc2c(cc1OC)[C@@H]1OC(=O)C[C@]1(I)C(C)(C)O2 (racemic), the FDI was 93.4. With COc1ccc2c(c1)OC(C)(C)[C@@]1(I)CC(=O)O[C@@H]21 (racemic) the FDI was 114.5. COc1cc2c(cc1OC)OC(C)(C)C=C2 [PROCOCENE II] gave an FDI of 194.2. In the case of COc1ccc2c(c1)OC(C)(C)C=C2 [PROCOCENE I], the FDI is reported as 139.

The compounds below were run on Tribolium confusum (assay: Antifeeding activity against Tribolium confusum (confused flour beetle) adults in compound treated wheat wafer disk assessed as absolute coefficient of deterrence by feeding deterrent activity test).
Assay type: functional
With COc1cc2c(cc1OC)[C@@H]1OC(=O)C[C@]1(I)C(C)(C)O2 (racemic) the FDI was 3.9. With COc1ccc2c(c1)OC(C)(C)[C@@]1(I)CC(=O)O[C@@H]21 (racemic) the FDI was 21.1. COc1cc2c(cc1OC)OC(C)(C)C=C2 [PROCOCENE II] showed an FDI of 100. COc1ccc2c(c1)OC(C)(C)C=C2 [PROCOCENE I] gave an FDI of 55.2.

The compounds below were run on Tribolium confusum (assay: Antifeeding activity against Tribolium confusum (confused flour beetle) larvaes in compound treated wheat wafer disk assessed as total coefficient of deterrence by feeding deterrent activity test).
Assay type: functional
In the case of COc1cc2c(cc1OC)[C@@H]1OC(=O)C[C@]1(I)C(C)(C)O2 (racemic), the FDI is reported as 147.8. In the case of COc1ccc2c(c1)OC(C)(C)[C@@]1(I)CC(=O)O[C@@H]21 (racemic), the FDI is reported as 94.2. With COc1cc2c(cc1OC)OC(C)(C)C=C2 [PROCOCENE II] the FDI was 165.7. Work on COc1ccc2c(c1)OC(C)(C)C=C2 [PROCOCENE I] yielded an FDI of 119.2.

Each compound was assayed on Aphididae (assay: Antifeeding activity against Aphididae (aphids) in compound treated chinese cabbage leaves assessed as settled aphids measured up to 24 hr).
Assay type: functional, organism-based
COc1cc2c(cc1OC)[C@@H]1OC(=O)C[C@]1(I)C(C)(C)O2 (racemic) was tested, and the Activity was “inactive”. COc1ccc2c(c1)OC(C)(C)[C@@]1(I)CC(=O)O[C@@H]21 (racemic) was tested, and the Activity was “inactive”. In the case of COc1cc2c(cc1OC)OC(C)(C)C=C2 [PROCOCENE II], the Activity is reported as “Active”. For COc1ccc2c(c1)OC(C)(C)C=C2 [PROCOCENE I], the Activity was “Active”.

The compounds below were run on Leptinotarsa decemlineata (assay: Antifeeding activity against Leptinotarsa decemlineata adults in compound treated wheat wafer disk assessed as absolute coefficient of deterrence by feeding deterrent activity test).
Assay type: functional
With COc1cc2c(cc1OC)[C@@H]1OC(=O)C[C@]1(I)C(C)(C)O2 (racemic) the FDI was 87.1. COc1ccc2c(c1)OC(C)(C)[C@@]1(I)CC(=O)O[C@@H]21 (racemic) showed an FDI of 61.6. With COc1cc2c(cc1OC)OC(C)(C)C=C2 [PROCOCENE II] the FDI was 44.2. In the case of COc1ccc2c(c1)OC(C)(C)C=C2 [PROCOCENE I], the FDI is reported as 41.9.

What follows are compounds tested on Sitophilus granarius (assay: Antifeeding activity against Sitophilus granarius (granary weevil) adults in compound treated wheat wafer disk assessed as absolute coefficient of deterrence by feeding deterrent activity test).
Assay type: functional
Compound COc1cc2c(cc1OC)[C@@H]1OC(=O)C[C@]1(I)C(C)(C)O2 (racemic) has an FDI of 3.9. Work on COc1ccc2c(c1)OC(C)(C)[C@@]1(I)CC(=O)O[C@@H]21 (racemic) yielded an FDI of 21.1. With COc1cc2c(cc1OC)OC(C)(C)C=C2 [PROCOCENE II] the FDI was 100. Work on COc1ccc2c(c1)OC(C)(C)C=C2 [PROCOCENE I] yielded an FDI of 55.2.

What follows are compounds tested on Leptinotarsa decemlineata (assay: Antifeeding activity against Leptinotarsa decemlineata adults in compound treated wheat wafer disk assessed as relative coefficient of deterrence by feeding deterrent activity test).
Assay type: functional
For COc1cc2c(cc1OC)[C@@H]1OC(=O)C[C@]1(I)C(C)(C)O2 (racemic), the FDI was 89.1. COc1ccc2c(c1)OC(C)(C)[C@@]1(I)CC(=O)O[C@@H]21 (racemic) was tested, and the FDI was 81.4. Work on COc1cc2c(cc1OC)OC(C)(C)C=C2 [PROCOCENE II] yielded an FDI of 71.8. Work on COc1ccc2c(c1)OC(C)(C)C=C2 [PROCOCENE I] yielded an FDI of 73.8.

Each compound was assayed on Leptinotarsa decemlineata (assay: Antifeeding activity against Leptinotarsa decemlineata adults in compound treated wheat wafer disk assessed as total coefficient of deterrence by feeding deterrent activity test).
Assay type: functional
COc1cc2c(cc1OC)[C@@H]1OC(=O)C[C@]1(I)C(C)(C)O2 (racemic) showed an FDI of 176.2. Work on COc1ccc2c(c1)OC(C)(C)[C@@]1(I)CC(=O)O[C@@H]21 (racemic) yielded an FDI of 143. COc1cc2c(cc1OC)OC(C)(C)C=C2 [PROCOCENE II] showed an FDI of 116. COc1ccc2c(c1)OC(C)(C)C=C2 [PROCOCENE I] showed an FDI of 115.7.
